Measurements as given in the supplement of paper PMC10307832.

What was measured:
Experiment in all cases: relative viability (nuclei count vs DMSO), 5 days (fraction); higher = more cells survive
AZD8055 + Tozasertib = compound: COc1ccc(-c2ccc3c(N4CCOC[C@@H]4C)nc(N4CCOC[C@@H]4C)nc3n2)cc1CO [AZD8055] + Cc1cc(Nc2cc(N3CCN(C)CC3)nc(Sc3ccc(NC(=O)C4CC4)cc3)n2)n[nH]1 [Tozasertib] (partner 0.1 µM)
In short: (§1)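 Lung cancer cell lines were pin-tool dosed in 1536-well plates on the day after seeding, with either a lone drug or a fixed anchor-drug dose plus five library-drug doses (not always all listed) in √10 steps. Nuclei were counted on 4× images after 5 days. Relative viability is the ratio of treated-well to vehicle-well nuclei counts, with each value a median of duplicate plates.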

AZD8055 + Foretinib = compound: COc1ccc(-c2ccc3c(N4CCOC[C@@H]4C)nc(N4CCOC[C@@H]4C)nc3n2)cc1CO [AZD8055] + COc1cc2c(Oc3ccc(NC(=O)C4(C(=O)Nc5ccc(F)cc5)CC4)cc3F)ccnc2cc1OCCCN1CCOCC1 [Foretinib] (partner 0.25 µM)
In short: as §1

AZD8055 + Luminespib = compound: COc1ccc(-c2ccc3c(N4CCOC[C@@H]4C)nc(N4CCOC[C@@H]4C)nc3n2)cc1CO [AZD8055] + CCNC(=O)c1noc(-c2cc(C(C)C)c(O)cc2O)c1-c1ccc(CN2CCOCC2)cc1 [Luminespib] (partner 0.01 µM)
In short: as §1

AZD8055 + AZD7762 = compound: COc1ccc(-c2ccc3c(N4CCOC[C@@H]4C)nc(N4CCOC[C@@H]4C)nc3n2)cc1CO [AZD8055] + NC(=O)Nc1cc(-c2cccc(F)c2)sc1C(=O)N[C@H]1CCCNC1 [AZD7762] (partner 0.2 µM)
In short: as §1

Row | Cell Line | relative viability (AZD8055 + Tozasertib; first compound 0.01 µM) | relative viability (AZD8055 + Tozasertib; first compound 0.03162 µM) | relative viability (AZD8055 + Tozasertib; first compound 0.1 µM) | relative viability (AZD8055 + Tozasertib; first compound 0.3162 µM) | relative viability (AZD8055 + Tozasertib; first compound 1 µM) | relative viability (AZD8055 + Foretinib; first compound 0.01 µM) | relative viability (AZD8055 + Foretinib; first compound 0.03162 µM) | relative viability (AZD8055 + Foretinib; first compound 0.1 µM) | relative viability (AZD8055 + Foretinib; first compound 0.3162 µM) | relative viability (AZD8055 + Foretinib; first compound 1 µM) | relative viability (AZD8055 + Luminespib; first compound 0.01 µM) | relative viability (AZD8055 + Luminespib; first compound 0.03162 µM) | relative viability (AZD8055 + Luminespib; first compound 0.1 µM) | relative viability (AZD8055 + Luminespib; first compound 0.3162 µM) | relative viability (AZD8055 + Luminespib; first compound 1 µM) | relative viability (AZD8055 + AZD7762; first compound 0.01 µM) | relative viability (AZD8055 + AZD7762; first compound 0.03162 µM) | relative viability (AZD8055 + AZD7762; first compound 0.1 µM) | relative viability (AZD8055 + AZD7762; first compound 0.3162 µM) | relative viability (AZD8055 + AZD7762; first compound 1 µM)
1 | NCI-H2170 | 0.794 | 0.732 | 0.485 | 0.349 | 0.239 | 1.07 | 1.04 | 0.868 | 0.451 | 0.397 | 0.633 | 0.715 | 0.403 | 0.233 | 0.165 | 1.04 | 0.733 | 0.502 | 0.293 | 0.226
2 | NCI-H2342 | 0.477 | 0.423 | 0.395 | 0.345 | 0.371 | 0.999 | 1.05 | 0.801 | 0.538 | 0.578 | 0.579 | 0.535 | 0.599 | 0.419 | 0.424 | 0.422 | 0.459 | 0.308 | 0.376 | 0.43
3 | NCI-H2347 | 0.543 | 0.515 | 0.519 | 0.305 | 0.252 | 0.804 | 0.949 | 0.454 | 0.403 | 0.386 | 0.295 | 0.251 | 0.367 | 0.282 | 0.222 | 0.781 | 0.614 | 0.633 | 0.449 | 0.281
4 | NCI-H2405 | 0.812 | 0.815 | 0.676 | 0.448 | 0.344 | 1.03 | 0.977 | 0.816 | 0.432 | 0.381 | 0.757 | 0.564 | 0.536 | 0.289 | 0.279 | 0.832 | 0.779 | 0.621 | 0.324 | 0.313
5 | NCI-H3122 | 0.465 | 0.375 | 0.315 | 0.178 | 0.132 | 0.97 | 1.02 | 1.05 | 0.396 | 0.401 | 0.0869 | 0.101 | 0.114 | 0.0794 | 0.0854 | 1.13 | 1.01 | 0.594 | 0.351 | 0.187
6 | PC-3 [JPC-3] | 0.864 | 0.993 | 0.978 | 0.614 | 0.431 | 1.12 | 1.12 | 1.1 | 0.774 | 0.492 | 0.717 | 0.565 | 0.693 | 0.469 | 0.332 | 0.772 | 0.681 | 0.728 | 0.37 | 0.399
7 | PC-14 | 0.834 | 0.762 | 0.535 | 0.109 | 0.0948 | 1.18 | 1.04 | 1.07 | 0.488 | 0.299 | 0.162 | 0.17 | 0.206 | 0.187 | 0.212 | 0.458 | 0.394 | 0.294 | 0.147 | 0.102
8 | RERF-LC-KJ | 0.519 | 0.556 | 0.421 | 0.333 | 0.299 | 0.963 | 0.754 | 0.771 | 0.535 | 0.392 | 1.19 | 1.14 | 0.853 | 0.475 | 0.473 | 1.26 | 1.08 | 0.659 | 0.402 | 0.434
9 | SW 900 | 0.567 | 0.747 | 0.425 | 0.285 | 0.34 | 1.03 | 0.86 | 0.647 | 0.654 | 0.409 | 0.172 | 0.182 | 0.17 | 0.177 | 0.16 | 0.538 | 1.01 | 0.54 | 0.324 | 0.268
